Patent publication US8952024B2, “Herbicidal pyrimidone derivatives” (E I du Pont de Nemours and Company, priority 2009, dated 2015)

How the values were obtained:
Format in all cases: in vivo
[1] = test system: windgrass (Apera spica-venti); assay: Test B postemergence plant response; settings: Postemergence
How it was run: (§1)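 Plants at the 1- to 4-leaf stage (2 to 18 cm tall), grown in pots of peat moss/vermiculite medium with wetting agent and starter nutrients, received postemergence applications of test chemicals. After 13 to 15 days in a greenhouse, injury was rated visually against untreated controls on a 0 (no effect) to 100 (complete control) scale.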

[2] = test system: winter barley (Hordeum vulgare); assay: Test B postemergence plant response; settings: Postemergence
How it was run: as §1

[3] = test system: canarygrass (Phalaris minor); assay: Test B postemergence plant response; settings: Postemergence
How it was run: as §1

[4] = test system: chickweed (Stellaria media); assay: Test B postemergence plant response; settings: Postemergence
How it was run: as §1

[5] = test system: wheat (Triticum aestivum); assay: Test A pre-/postemergence plant response; settings: for Wheat plant response rating: visual injury, 0 to 100 scale (0 no effect, 100 complete control), approx. ten days
How it was run: (§2)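 Injury scores (0, no effect; 100, complete control) come from visual comparison with untreated controls roughly ten days post-treatment. Test chemicals in a surfactant-containing non-phytotoxic solvent were applied as a directed soil spray preemergence and to one- to two-leaf seedlings postemergence.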

[6] = test system: velvetleaf (Abutilon theophrasti); assay: Test A pre-/postemergence plant response; settings: for Velvetleaf plant response rating: visual injury, 0 to 100 scale (0 no effect, 100 complete control), approx. ten days
How it was run: as §2

[7] = test system: large crabgrass (Digitaria sanguinalis); assay: Test A pre-/postemergence plant response; settings: for Crabgrass, Large plant response rating: visual injury, 0 to 100 scale (0 no effect, 100 complete control), approx. ten days
How it was run: as §2

[8] = test system: barnyardgrass (Echinochloa crus-galli); assay: Test A pre-/postemergence plant response; settings: for Barnyardgrass plant response rating: visual injury, 0 to 100 scale (0 no effect, 100 complete control), approx. ten days
How it was run: as §2

[9] = test system: giant foxtail (Setaria faberii); assay: Test A pre-/postemergence plant response; settings: for Foxtail, Giant plant response rating: visual injury, 0 to 100 scale (0 no effect, 100 complete control), approx. ten days
How it was run: as §2

[10] = test system: corn (Zea mays); assay: Test A pre-/postemergence plant response; settings: for Corn plant response rating: visual injury, 0 to 100 scale (0 no effect, 100 complete control), approx. ten days
How it was run: as §2

[11] = test system: pigweed (Amaranthus retroflexus); assay: Test A pre-/postemergence plant response; settings: for Pigweed plant response rating: visual injury, 0 to 100 scale (0 no effect, 100 complete control), approx. ten days
How it was run: as §2

[12] = test system: morningglory (Ipomoea spp.); assay: Test A pre-/postemergence plant response; settings: for Morningglory plant response rating: visual injury, 0 to 100 scale (0 no effect, 100 complete control), approx. ten days
How it was run: as §2

[13] = 31 g ai/ha, 0 to 100 scale (0 no effect, 100 complete control)
[14] = 62 g ai/ha, scale 0 to 100 (0 no effect, 100 complete control)
[15] = 250 g ai/ha, scale 0 to 100 (0 no effect, 100 complete control), 13 to 15 days
[16] = 125 g ai/ha, scale 0 to 100 (0 no effect, 100 complete control)
[17] = Postemergence, 125 g ai/ha, 0 to 100 scale where 0 is no effect and 100 is complete control
[18] = Preemergence, 125 g ai/ha, 0 to 100 scale, 0 = no effect, 100 = complete control
[19] = Preemergence, 500 g ai/ha, 0 to 100 scale, 0 = no effect, 100 = complete control

COc1ccc(-n2c(-c3ccccc3)ncc(C(=O)C3=C(O)CCCC3=O)c2=O)cc1OC [Compound 218]
Plant response rating, Windgrass [1, 13]: 10
Plant response rating, Windgrass [1, 14]: 20
Plant response rating, Windgrass [1, 15]: 45
Plant response rating, Barley [2, 13]: 30
Plant response rating, Barley [2, 14]: 30
Plant response rating, Barley [2, 16]: 35
Plant response rating, Barley [2, 15]: 35
Plant response rating, Canarygrass [3, 13]: 0
Plant response rating, Canarygrass [3, 14]: 0
Plant response rating, Canarygrass [3, 16]: 0
Plant response rating, Canarygrass [3, 15]: 5
Plant response rating, Chickweed [4, 13]: 100
Plant response rating, Chickweed [4, 14]: 100
Plant response rating, Chickweed [4, 16]: 100
Plant response rating, Chickweed [4, 15]: 100
Plant response rating, Wheat [5, 17]: 0
Wheat plant response rating ([5]; Postemergence, 500 g ai/ha): 0
Plant response rating, Wheat [5, 18]: 0
Plant response rating, Wheat [5, 19]: 0
Plant response rating, Velvetleaf [6, 17]: 100
Velvetleaf plant response rating ([6]; Postemergence, 500 g ai/ha): 100
Plant response rating, Velvetleaf [6, 18]: 50
Plant response rating, Velvetleaf [6, 19]: 90
Plant response rating, Crabgrass, Large [7, 17]: 20
Crabgrass, Large plant response rating ([7]; Postemergence, 500 g ai/ha): 70
Plant response rating, Crabgrass, Large [7, 18]: 10
Plant response rating, Crabgrass, Large [7, 19]: 80
Plant response rating, Barnyardgrass [8, 17]: 80
Barnyardgrass plant response rating ([8]; Postemergence, 500 g ai/ha): 90
Plant response rating, Barnyardgrass [8, 18]: 20
Plant response rating, Barnyardgrass [8, 19]: 100
Plant response rating, Foxtail, Giant [9, 17]: 40
Foxtail, Giant plant response rating ([9]; Postemergence, 500 g ai/ha): 70
Plant response rating, Foxtail, Giant [9, 18]: 0
Plant response rating, Foxtail, Giant [9, 19]: 50
Plant response rating, Corn [10, 17]: 0
Corn plant response rating ([10]; Postemergence, 500 g ai/ha): 70
Plant response rating, Corn [10, 18]: 0
Plant response rating, Corn [10, 19]: 0
Plant response rating, Pigweed [11, 17]: 100
Pigweed plant response rating ([11]; Postemergence, 500 g ai/ha): 100
Plant response rating, Pigweed [11, 18]: 20
Plant response rating, Pigweed [11, 19]: 90
Plant response rating, Morningglory [12, 17]: 80
Morningglory plant response rating ([12]; Postemergence, 500 g ai/ha): 100
Plant response rating, Morningglory [12, 18]: 0
Plant response rating, Morningglory [12, 19]: 80

CCc1ccc(-n2c(-c3ccccc3)ncc(C(=O)C3=C(O)CCCC3=O)c2=O)cc1 [Compound 219]
Plant response rating, Windgrass [1, 13]: 35
Plant response rating, Windgrass [1, 14]: 40
Plant response rating, Windgrass [1, 15]: 85
Plant response rating, Barley [2, 13]: 0
Plant response rating, Barley [2, 14]: 25
Plant response rating, Barley [2, 16]: 30
Plant response rating, Barley [2, 15]: 30
Plant response rating, Canarygrass [3, 13]: 35
Plant response rating, Canarygrass [3, 14]: 55
Plant response rating, Canarygrass [3, 16]: 55
Plant response rating, Canarygrass [3, 15]: 55
Plant response rating, Chickweed [4, 13]: 100
Plant response rating, Chickweed [4, 14]: 100
Plant response rating, Chickweed [4, 16]: 100
Plant response rating, Chickweed [4, 15]: 100
Plant response rating, Wheat [5, 17]: 0
Wheat plant response rating ([5]; Postemergence, 500 g ai/ha): 30
Plant response rating, Wheat [5, 18]: 0
Plant response rating, Wheat [5, 19]: 20
Plant response rating, Velvetleaf [6, 17]: 100
Velvetleaf plant response rating ([6]; Postemergence, 500 g ai/ha): 100
Plant response rating, Velvetleaf [6, 18]: 30
Plant response rating, Velvetleaf [6, 19]: 90
Plant response rating, Crabgrass, Large [7, 17]: 80
Crabgrass, Large plant response rating ([7]; Postemergence, 500 g ai/ha): 100
Plant response rating, Crabgrass, Large [7, 18]: 50
Plant response rating, Crabgrass, Large [7, 19]: 100
Plant response rating, Barnyardgrass [8, 17]: 90
Barnyardgrass plant response rating ([8]; Postemergence, 500 g ai/ha): 90
Plant response rating, Barnyardgrass [8, 18]: 40
Plant response rating, Barnyardgrass [8, 19]: 100
Plant response rating, Foxtail, Giant [9, 17]: 50
Foxtail, Giant plant response rating ([9]; Postemergence, 500 g ai/ha): 90
Plant response rating, Foxtail, Giant [9, 18]: 10
Plant response rating, Foxtail, Giant [9, 19]: 80
Plant response rating, Corn [10, 17]: 0
Corn plant response rating ([10]; Postemergence, 500 g ai/ha): 30
Plant response rating, Corn [10, 18]: 0
Plant response rating, Corn [10, 19]: 0
Plant response rating, Pigweed [11, 17]: 100
Pigweed plant response rating ([11]; Postemergence, 500 g ai/ha): 100
Plant response rating, Pigweed [11, 18]: 90
Plant response rating, Pigweed [11, 19]: 100
Plant response rating, Morningglory [12, 17]: 100
Morningglory plant response rating ([12]; Postemergence, 500 g ai/ha): 100
Plant response rating, Morningglory [12, 18]: 20
Plant response rating, Morningglory [12, 19]: 80
